Measurements as given in ChEMBL document CHEMBL4765227, “Hit to lead optimization of a series of N-[4-(1,3-benzothiazol-2-yl)phenyl]acetamides as monoacylglycerol lipase inhibitors with potential anticancer activity” (Eur J Med Chem, 2016).

Tests used:
Assay type in all cases: functional
Conditions in all cases: read-out: GI
SR = test: Growth inhibition of human SR cells at 10 uM incubated for 48 hrs by sulforhodamine B assay relative to control
LOX IMVI = test: Growth inhibition of human LOX IMVI cells at 10 uM incubated for 48 hrs by sulforhodamine B assay relative to control
MDA-MB-231 = test: Growth inhibition of human MDA-MB-231 cells at 10 uM incubated for 48 hrs by sulforhodamine B assay relative to control
SK-MEL-5 = test: Growth inhibition of human SK-MEL-5 cells at 10 uM incubated for 48 hrs by sulforhodamine B assay relative to control
U-251 = test: Growth inhibition of human U-251 cells at 10 uM incubated for 48 hrs by sulforhodamine B assay relative to control
MOLT-4 = test: Growth inhibition of human MOLT-4 cells at 10 uM incubated for 48 hrs by sulforhodamine B assay relative to control
BT-549 = test: Growth inhibition of human BT-549 cells at 10 uM incubated for 48 hrs by sulforhodamine B assay relative to control
PC-3 = test: Growth inhibition of human PC-3 cells at 10 uM incubated for 48 hrs by sulforhodamine B assay relative to control
OVCAR-4 = test: Growth inhibition of human OVCAR-4 cells at 10 uM incubated for 48 hrs by sulforhodamine B assay relative to control
CCRF-CEM = test: Growth inhibition of human CCRF-CEM cells at 10 uM incubated for 48 hrs by sulforhodamine B assay relative to control
NCI-H23 = test: Growth inhibition of human NCI-H23 cells at 10 uM incubated for 48 hrs by sulforhodamine B assay relative to control
A549 = test: Growth inhibition of human A549/ATCC cells at 10 uM incubated for 48 hrs by sulforhodamine B assay relative to control
NCI-H322M = test: Growth inhibition of human NCI-H322M cells at 10 uM incubated for 48 hrs by sulforhodamine B assay relative to control
MDA-MB-435 = test: Growth inhibition of human MDA-MB-435 cells at 10 uM incubated for 48 hrs by sulforhodamine B assay relative to control
NCI-H460 = test: Growth inhibition of human NCI-H460 cells at 10 uM incubated for 48 hrs by sulforhodamine B assay relative to control
UACC-62 = test: Growth inhibition of human UACC-62 cells at 10 uM incubated for 48 hrs by sulforhodamine B assay relative to control
OVCAR-8 = test: Growth inhibition of human OVCAR-8 cells at 10 uM incubated for 48 hrs by sulforhodamine B assay relative to control
SF-295 = test: Growth inhibition of human SF-295 cells at 10 uM incubated for 48 hrs by sulforhodamine B assay relative to control
SK-OV-3 = test: Growth inhibition of human SK-OV-3 cells at 10 uM incubated for 48 hrs by sulforhodamine B assay relative to control
SF-539 = test: Growth inhibition of human SF-539 cells at 10 uM incubated for 48 hrs by sulforhodamine B assay relative to control
786-0 = test: Growth inhibition of human 786-0 cells at 10 uM incubated for 48 hrs by sulforhodamine B assay relative to control
HOP-62 = test: Growth inhibition of human HOP-62 cells at 10 uM incubated for 48 hrs by sulforhodamine B assay relative to control
ACHN = test: Growth inhibition of human ACHN cells at 10 uM incubated for 48 hrs by sulforhodamine B assay relative to control
M14 = test: Growth inhibition of human M14 cells at 10 uM incubated for 48 hrs by sulforhodamine B assay relative to control
K562 = test: Growth inhibition of human K562 cells at 10 uM incubated for 48 hrs by sulforhodamine B assay relative to control
TK-10 = test: Growth inhibition of human TK-10 cells at 10 uM incubated for 48 hrs by sulforhodamine B assay relative to control
DU-145 = test: Growth inhibition of human DU-145 cells at 10 uM incubated for 48 hrs by sulforhodamine B assay relative to control
HCT-116 = test: Growth inhibition of human HCT-116 cells at 10 uM incubated for 48 hrs by sulforhodamine B assay relative to control
MCF7 = test: Growth inhibition of human MCF7 cells at 10 uM incubated for 48 hrs by sulforhodamine B assay relative to control
COLO 205 = test: Growth inhibition of human COLO 205 cells at 10 uM incubated for 48 hrs by sulforhodamine B assay relative to control
Hs-578T = test: Growth inhibition of human Hs-578T cells at 10 uM incubated for 48 hrs by sulforhodamine B assay relative to control
UO-31 = test: Growth inhibition of human UO-31 cells at 10 uM incubated for 48 hrs by sulforhodamine B assay relative to control
HL-60(TB) = test: Growth inhibition of human HL-60(TB) cells at 10 uM incubated for 48 hrs by sulforhodamine B assay relative to control
RXF 393 = test: Growth inhibition of human RXF 393 cells at 10 uM incubated for 48 hrs by sulforhodamine B assay relative to control
NCI-H226 = test: Growth inhibition of human NCI-H226 cells at 10 uM incubated for 48 hrs by sulforhodamine B assay relative to control
KM12 = test: Growth inhibition of human KM12 cells at 10 uM incubated for 48 hrs by sulforhodamine B assay relative to control
HT-29 = test: Growth inhibition of human HT-29 cells at 10 uM incubated for 48 hrs by sulforhodamine B assay relative to control
NCI/ADR-RES = test: Growth inhibition of human NCI/ADR-RES cells at 10 uM incubated for 48 hrs by sulforhodamine B assay relative to control
IGROV-1 = test: Growth inhibition of human IGROV-1 cells at 10 uM incubated for 48 hrs by sulforhodamine B assay relative to control
NCI-H522 = test: Growth inhibition of human NCI-H522 cells at 10 uM incubated for 48 hrs by sulforhodamine B assay relative to control
SN12C = test: Growth inhibition of human SN12C cells at 10 uM incubated for 48 hrs by sulforhodamine B assay relative to control
CAKI-1 = test: Growth inhibition of human CAKI-1 cells at 10 uM incubated for 48 hrs by sulforhodamine B assay relative to control
OVCAR-3 = test: Growth inhibition of human OVCAR-3 cells at 10 uM incubated for 48 hrs by sulforhodamine B assay relative to control
MDA-MB-468 = test: Growth inhibition of human MDA-MB-468 cells at 10 uM incubated for 48 hrs by sulforhodamine B assay relative to control

`COc1ccc(NCC(=O)Nc2ccc(-c3nc4ccccc4s3)cc2)cc1` gave an inhibition of growth at 10 µM (SR) of 15.6%, an inhibition of growth at 10 µM (LOX IMVI) of 8.68% and an inhibition of growth at 10 µM (MDA-MB-231) of 27.5%. The inhibition of growth at 10 µM (SK-MEL-5) was 2.74%, the inhibition of growth at 10 µM (U-251) was 19.1% and the inhibition of growth at 10 µM (MOLT-4) was 33.7%. It also gave an inhibition of growth at 10 µM (BT-549) of 15.2%, an inhibition of growth at 10 µM (PC-3) of 12.9% and an inhibition of growth at 10 µM (OVCAR-4) of 12.8%. For the same molecule, the inhibition of growth at 10 µM (CCRF-CEM) was 40.8%, the inhibition of growth at 10 µM (NCI-H23) was 14.3% and the inhibition of growth at 10 µM (A549) was 10.5%. For the same molecule, the inhibition of growth at 10 µM (NCI-H322M) was 3%, the inhibition of growth at 10 µM (MDA-MB-435) was -7.51% and the inhibition of growth at 10 µM (NCI-H460) was 0.74%. For the same molecule, the inhibition of growth at 10 µM (UACC-62) was 0.37%, the inhibition of growth at 10 µM (OVCAR-8) was 4.93% and the inhibition of growth at 10 µM (SF-295) was 3.2%. The inhibition of growth at 10 µM (SK-OV-3) was -7.58%, the inhibition of growth at 10 µM (SF-539) was 3.41% and the inhibition of growth at 10 µM (786-0) was 14.8%. It also gave an inhibition of growth at 10 µM (HOP-62) of 14.6%, an inhibition of growth at 10 µM (ACHN) of -3.5% and an inhibition of growth at 10 µM (M14) of 0.16%. For the same molecule, the inhibition of growth at 10 µM (K562) was 11.6%, the inhibition of growth at 10 µM (TK-10) was -8.6% and the inhibition of growth at 10 µM (DU-145) was 0.77%. The inhibition of growth at 10 µM (HCT-116) was 11.6%, the inhibition of growth at 10 µM (MCF7) was 35% and the inhibition of growth at 10 µM (COLO 205) was -6.9%. For the same molecule, the inhibition of growth at 10 µM (Hs-578T) was 2.83%, the inhibition of growth at 10 µM (UO-31) was 28.1% and the inhibition of growth at 10 µM (HL-60(TB)) was 20.9%. For the same molecule, the inhibition of growth at 10 µM (RXF 393) was -1.89%, the inhibition of growth at 10 µM (NCI-H226) was 5.16% and the inhibition of growth at 10 µM (KM12) was 3.03%. The inhibition of growth at 10 µM (HT-29) was -8.15%, the inhibition of growth at 10 µM (NCI/ADR-RES) was -1.88% and the inhibition of growth at 10 µM (IGROV-1) was 7.74%. It also gave an inhibition of growth at 10 µM (NCI-H522) of 5.02%, an inhibition of growth at 10 µM (SN12C) of 5.87% and an inhibition of growth at 10 µM (CAKI-1) of -2.81%. It also gave an inhibition of growth at 10 µM (OVCAR-3) of 3.44% and an inhibition of growth at 10 µM (MDA-MB-468) of 5.6%.

`O=C(CNc1c(Cl)cccc1Cl)Nc1ccc(-c2nc3ccccc3s2)cc1` gave an inhibition of growth at 10 µM (SR) of 89.3%, an inhibition of growth at 10 µM (LOX IMVI) of 149% and an inhibition of growth at 10 µM (MDA-MB-231) of 43.1%. It also gave an inhibition of growth at 10 µM (SK-MEL-5) of 78.8%, an inhibition of growth at 10 µM (U-251) of 72.3% and an inhibition of growth at 10 µM (MOLT-4) of 94.4%. It also gave an inhibition of growth at 10 µM (BT-549) of 78%, an inhibition of growth at 10 µM (PC-3) of 14.1% and an inhibition of growth at 10 µM (OVCAR-4) of 82.5%. It also gave an inhibition of growth at 10 µM (CCRF-CEM) of 97.8%, an inhibition of growth at 10 µM (NCI-H23) of 59.1% and an inhibition of growth at 10 µM (A549) of 14.3%. For the same molecule, the inhibition of growth at 10 µM (NCI-H322M) was 5.42%, the inhibition of growth at 10 µM (MDA-MB-435) was 32.1% and the inhibition of growth at 10 µM (NCI-H460) was 8.81%. The inhibition of growth at 10 µM (UACC-62) was 64.9%, the inhibition of growth at 10 µM (OVCAR-8) was 33.3% and the inhibition of growth at 10 µM (SF-295) was 2.62%. The inhibition of growth at 10 µM (SK-OV-3) was 2.25%, the inhibition of growth at 10 µM (SF-539) was 20.1% and the inhibition of growth at 10 µM (786-0) was 75.9%. It also gave an inhibition of growth at 10 µM (HOP-62) of -18.3%, an inhibition of growth at 10 µM (ACHN) of 57.7% and an inhibition of growth at 10 µM (M14) of 44.3%. For the same molecule, the inhibition of growth at 10 µM (K562) was 89.5%, the inhibition of growth at 10 µM (TK-10) was -6.12% and the inhibition of growth at 10 µM (DU-145) was 14.3%. It also gave an inhibition of growth at 10 µM (HCT-116) of 70.1%, an inhibition of growth at 10 µM (MCF7) of 85.4% and an inhibition of growth at 10 µM (COLO 205) of 12.3%. It also gave an inhibition of growth at 10 µM (Hs-578T) of 12.8%, an inhibition of growth at 10 µM (UO-31) of 26.3% and an inhibition of growth at 10 µM (HL-60(TB)) of 29.3%. The inhibition of growth at 10 µM (RXF 393) was 13.4%, the inhibition of growth at 10 µM (NCI-H226) was 45.6% and the inhibition of growth at 10 µM (KM12) was 8.67%. For the same molecule, the inhibition of growth at 10 µM (HT-29) was 30.2%, the inhibition of growth at 10 µM (NCI/ADR-RES) was 36% and the inhibition of growth at 10 µM (IGROV-1) was 50.7%. It also gave an inhibition of growth at 10 µM (NCI-H522) of 193%, an inhibition of growth at 10 µM (SN12C) of 52% and an inhibition of growth at 10 µM (CAKI-1) of 71.2%. For the same molecule, the inhibition of growth at 10 µM (OVCAR-3) was 45.6% and the inhibition of growth at 10 µM (MDA-MB-468) was 107%.
